Measurements taken from BindingDB's records for patent US11098029 (Merck Sharp & Dohme, 2021).

target: T1, Orexin receptor type 2 (Homo sapiens, UniProt O43614); experiment: Receptor Activity Assay
T1 sequence (O43614 whole entry): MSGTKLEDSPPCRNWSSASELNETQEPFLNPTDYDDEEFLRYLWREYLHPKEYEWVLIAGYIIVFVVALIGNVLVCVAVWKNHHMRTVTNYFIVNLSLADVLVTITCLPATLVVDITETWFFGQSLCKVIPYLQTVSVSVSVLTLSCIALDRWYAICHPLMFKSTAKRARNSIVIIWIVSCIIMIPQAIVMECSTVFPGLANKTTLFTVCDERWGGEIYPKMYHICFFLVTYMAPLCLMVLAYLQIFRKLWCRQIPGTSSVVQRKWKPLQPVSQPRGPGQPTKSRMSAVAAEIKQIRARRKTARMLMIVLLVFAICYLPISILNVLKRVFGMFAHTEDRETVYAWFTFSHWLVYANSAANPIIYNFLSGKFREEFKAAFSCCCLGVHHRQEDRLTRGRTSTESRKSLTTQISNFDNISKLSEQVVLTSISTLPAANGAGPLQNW
Procedure: In a typical experiment, the OX1 and OX2 receptor agonist activity is determined in accordance with the following general experimental method.

Row | Compound | IC50
1 | COC(=O)N1[C@H](C)C[C@H](NS(C)(=O)=O)[C@@H]1COC1CCC(C(C)C)CC1 (some centres not stated) [US11098029, Example 3] | 19.3 nM
2 | COC(=O)N1[C@H](C)C[C@H](NS(C)(=O)=O)[C@@H]1COC1CCC(CC(F)(F)F)CC1 (some centres not stated) [US11098029, Example 12] | 390 nM
3 | CCNC(=O)N1[C@H](C)C[C@H](NS(C)(=O)=O)[C@@H]1COC1CCC(C(F)(F)F)CC1 (some centres not stated) [US11098029, Example 2] | 117 nM
4 | CCOC(=O)N1[C@H](C)C[C@H](NS(=O)(=O)N(C)C)[C@@H]1COC1CCC(C(C)C)CC1 (some centres not stated) [US11098029, Example 8] | 9.52 nM
5 | CC(C)C1CCC(OC[C@H]2[C@@H](NS(=O)(=O)N(C)C)C[C@@H](C)N2C(=O)OCC(F)F)CC1 (some centres not stated) [US11098029, Example 14] | 2.5 nM
6 | CC[C@@H]1C[C@H](NS(C)(=O)=O)[C@H](CO[C@H]2CC[C@@H](c3ccccc3)CC2)N1C(=O)OC (racemic) [US11098029, Example 43] | 8.1 nM
7 | CC(C)C1CCC(OC[C@H]2[C@@H](NS(C)(=O)=O)C[C@@H](C)N2C(=O)OCC(F)F)CC1 (some centres not stated) [US11098029, Example 9] | 8.57 nM
8 | COC(=O)N1[C@H](C)C[C@H](NS(=O)(=O)N(C)CCS(C)(=O)=O)[C@@H]1COC1CCC(c2cccc(F)c2)CC1 (some centres not stated) [US11098029, Example 57] | 1.6 nM
9 | CNS(=O)(=O)N[C@H]1C[C@@H](C)N(C(=O)OCC(F)F)[C@H]1COC1CCC(C(C)C)CC1 (some centres not stated) [US11098029, Example 13] | 1.9 nM
10 | CC(C)OC(=O)N1[C@H](C)C[C@H](NS(C)(=O)=O)[C@@H]1COC1CCC(C(C)C)CC1 (some centres not stated) [US11098029, Example 5] | 227 nM
11 | COC(=O)N1[C@H](C)C[C@H](NS(=O)(=O)N(C)C)[C@@H]1COC1CCC(C(F)(F)F)CC1 (some centres not stated) [US11098029, Example 11] | 264 nM
12 | CC(C)C1CCC(OC[C@H]2[C@@H](NS(C)(=O)=O)C[C@@H](C)N2C(=O)OCCF)CC1 (some centres not stated) [US11098029, Example 10] | 69.3 nM
